Measurements: patent US8758782B2, “Excipient preservatives and pharmaceutical compositions comprised thereof” (Galderma Research & Development, priority 2007, dated 2014)

Columns and labels:
[1] = system: Aspergillus niger, reference ATCC 16404; assay: Preservative Efficacy Test (PET), Aspergillus niger; assay type: cell-based; parameters: key to Moulds, Aspergillus Niger: −: No European pharmacopoeia criterion or USP criterion is met; +: for the coli: the USP criteria are met; ++: the European pharmacopoeia criteria A are met; conditions: for Moulds, Aspergillus Niger: additive in standard emulsion at its given % (EDTA 0.15, citric acid 2, sodium ascorbate 2, tocopherol 0.05, BHT 1, propyl gallate 0.1, ascorbyl palmitate 1)
Source text: (§1) A particular problem that must be solved by the invention is that of effectively protecting a pharmaceutical topical composition while at the same time meeting the criteria required by the European and U.S. pharmacopoeias. This is because, since the purpose of the pharmaceutical composition is to become a pharmaceutical product with a marketing authorization, it is imperative for the composition according to the invention to meet these criteria. In order to verify this point and to determine the antimicrobial action of the various mixtures of excipients according to the invention, a test protocol, known as the PET (Preservative Efficacy Test), exists. The PET comprises artificially inoculating the compositions with a known number of microorganisms, and then determining the decrease in the latter in the compositions tested, at given times. The protocol of this test is set up in order to abide by the recommendations of the European and U.S. pharmacopoeias. […] The mixture of excipients as preservatives, described herein, should therefore meet the criteria of these pharmacopoeias in the PET. This test comprises artificially contaminating aliquots of formulation by means of a calibrated inoculum of specific microorganisms and incubating the same at precise temperatures. Samples are taken from the contaminated aliquots at given time intervals in order to count the microorganisms. Fungi: • Candida albicans, reference ATCC 10231; NCPF 3179; IP 48.72. • Aspergillus niger, reference ATCC 16404; IMI 149007; IP 1431.83. Fungi: • Candida albicans, reference ATCC 10231. • Aspergillus niger, reference ATCC 16404.

[2] = system: Staphylococcus aureus, reference ATCC 6538; assay: Preservative Efficacy Test (PET), Staphylococcus aureus; assay type: cell-based; parameters: key to Gram+ bacterium, Staphylococcus aureus: −: No European pharmacopoeia criterion or USP criterion is met; +: for the coli: the USP criteria are met; ++: the European pharmacopoeia criteria A are met; conditions: additive in standard emulsion
Source text: (§2) A particular problem that must be solved by the invention is that of effectively protecting a pharmaceutical topical composition while at the same time meeting the criteria required by the European and U.S. pharmacopoeias. This is because, since the purpose of the pharmaceutical composition is to become a pharmaceutical product with a marketing authorization, it is imperative for the composition according to the invention to meet these criteria. In order to verify this point and to determine the antimicrobial action of the various mixtures of excipients according to the invention, a test protocol, known as the PET (Preservative Efficacy Test), exists. The PET comprises artificially inoculating the compositions with a known number of microorganisms, and then determining the decrease in the latter in the compositions tested, at given times. The protocol of this test is set up in order to abide by the recommendations of the European and U.S. pharmacopoeias. […] The mixture of excipients as preservatives, described herein, should therefore meet the criteria of these pharmacopoeias in the PET. This test comprises artificially contaminating aliquots of formulation by means of a calibrated inoculum of specific microorganisms and incubating the same at precise temperatures. Samples are taken from the contaminated aliquots at given time intervals in order to count the microorganisms. Bacteria: • Pseudomonas aeruginosa, reference ATCC 9027; NCIMB 8626; CIP 82.118. • Staphylococcus aureus, reference ATCC 6538; NCTC 10788; NCIMB 9518; CIP 4.83. Bacteria: • Escherichia coli, reference ATCC 8739. • Pseudomonas aeruginosa, reference ATCC 9027. • Staphylococcus aureus, reference ATCC 6538.

[3] = system: Bacteria and fungi (Escherichia coli, Pseudomonas aeruginosa, Staphylococcus aureus, Candida albicans, Aspergillus niger); assay: PET, overall compliance with European and U.S. pharmacopoeia criteria; assay type: cell-based; conditions: for Efficacy on the microorganisms as a whole / spectrum of efficacy: additive in standard emulsion; for USP criteria / Bacteria: European pharmacopoeia criteria: 30% by mass in an aqueous solution, without ethanol; for Bacteria: European pharmacopoeia criteria: bacteria only; for Solutions providing antimicrobial protection, Pharma Europe: EtOH concentration / Solutions providing antimicrobial protection, Pharma USP: EtOH concentration: ethanol combined with the humectant; for Solutions providing antimicrobial protection, Pharma Europe: EtOH concentration / Solutions providing antimicrobial protection, Pharma USP: EtOH concentration / Solutions providing antimicrobial protection, Pharma Europe: humectant concentration / Solutions providing antimicrobial protection, Pharma USP: humectant concentration: lotion-type aqueous solution, no preservative; for Solutions providing antimicrobial protection, Pharma Europe: humectant concentration / Solutions providing antimicrobial protection, Pharma USP: humectant concentration: humectant combined with ethanol; for Ethanol concentration to meet European pharmacopoeia criteria A: reduced from 25%; for Ethanol concentration to meet the USP criteria: reduced from 15%
Source text: A particular problem that must be solved by the invention is that of effectively protecting a pharmaceutical topical composition while at the same time meeting the criteria required by the European and U.S. pharmacopoeias. This is because, since the purpose of the pharmaceutical composition is to become a pharmaceutical product with a marketing authorization, it is imperative for the composition according to the invention to meet these criteria. In order to verify this point and to determine the antimicrobial action of the various mixtures of excipients according to the invention, a test protocol, known as the PET (Preservative Efficacy Test), exists. The PET comprises artificially inoculating the compositions with a known number of microorganisms, and then determining the decrease in the latter in the compositions tested, at given times. The protocol of this test is set up in order to abide by the recommendations of the European and U.S. pharmacopoeias. The test and also the recommendations of the European and U.S. pharmacopoeias are described in Example 1 to follow. The mixture of excipients as preservatives, described herein, should therefore meet the criteria of these pharmacopoeias in the PET.
This test comprises artificially contaminating aliquots of formulation by means of a calibrated inoculum of specific microorganisms and incubating the same at precise temperatures. Samples are taken from the contaminated aliquots at given time intervals in order to count the microorganisms.
It also makes it obligatory to study the reductions in population of the microorganisms introduced into the formulation according to two acceptability criteria.
Since the A criteria are the most strict, it are […] generally required that they be met.
In justified cases, when the A criteria cannot be complied with, for example owing to an increase in the risk of adverse reactions, the B criteria, which are less drastic, apply.
NI (Non-Increase) signifies that there must not be an increase in the number of microorganisms.
It imposes logarithmic reductions in the population of microorganisms which are different than that of the European pharmacopoeia.

[4] = system: Pseudomonas aeruginosa, reference ATCC 9027; assay: Preservative Efficacy Test (PET), Pseudomonas aeruginosa; assay type: cell-based; parameters: key to Gram− bacterium, Pseudomonas aeruginosa: −: No European pharmacopoeia criterion or USP criterion is met; +: for the coli: the USP criteria are met; ++: the European pharmacopoeia criteria A are met; conditions: additive in standard emulsion
Source text: as §2

[5] = system: Candida albicans, reference ATCC 10231; assay: Preservative Efficacy Test (PET), Candida albicans; assay type: cell-based; parameters: key to Yeast, Candida albicans: −: No European pharmacopoeia criterion or USP criterion is met; +: for the coli: the USP criteria are met; ++: the European pharmacopoeia criteria A are met; conditions: additive in standard emulsion
Source text: as §1

[6] = system: Escherichia coli, reference ATCC 8739; assay: Preservative Efficacy Test (PET), Escherichia coli; assay type: cell-based; parameters: key to Gram− bacterium, Esoherichia coli: −: No European pharmacopoeia criterion or USP criterion is met; +: for the coli: the USP criteria are met; ++: the European pharmacopoeia criteria A are met; conditions: additive in standard emulsion
Source text: as §2, with “•” for “• Pseudomonas aeruginosa, reference ATCC 9027; NCIMB 8626; CIP 82.118. • Staphylococcus aureus, reference ATCC 6538; NCTC 10788; NCIMB 9518; CIP 4.83. Bacteria: •”

microorganisms = conditions: J. J. Kabara; cited from earlier work
Aspergillus niger = conditions: cited from earlier work
Candida albicans = conditions: cited from earlier work

CCCCCCCCCCCCCCCC(=O)OC[C@H](O)[C@H]1OC(=O)C(O)=C1O [Ascorbyl palmitate]
Moulds, Aspergillus Niger [1]: − | Gram+ bacterium, Staphylococcus aureus [2]: ++ | Efficacy on the microorganisms as a whole / spectrum of efficacy [3]: bactericidal | Gram− bacterium, Pseudomonas aeruginosa [4]: ++ | Yeast, Candida albicans [5]: − | Gram− bacterium, Esoherichia coli [6]: +

Cc1cc(C(C)(C)C)c(O)c(C(C)(C)C)c1 [BHT, butylhydroxytoluene]
Moulds, Aspergillus Niger [1]: − | Gram+ bacterium, Staphylococcus aureus [2]: − | Gram− bacterium, Pseudomonas aeruginosa [4]: − | Yeast, Candida albicans [5]: − | Gram− bacterium, Esoherichia coli [6]: −

O.O.O=C([O-])CN(CCN(CC(=O)O)CC(=O)O)CC(=O)[O-].[Na+].[Na+] [EDTA, Disodium EDTA Dihydrate]
Moulds, Aspergillus Niger [1]: − | Gram+ bacterium, Staphylococcus aureus [2]: − | Gram− bacterium, Pseudomonas aeruginosa [4]: ++ | Inhibition of Pseudomonas aeruginosa, criteria met [4]: meeting European pharmacopoeia criteria A | Yeast, Candida albicans [5]: − | Gram− bacterium, Esoherichia coli [6]: −

CC(O)CO (centres unmarked) [PG, Propylene glycol]
Action on fungi, in particular Aspergillus niger ([1]; humectant alone, without ethanol): does not ensure a decrease in these microorganisms | USP criteria [3]: makes it possible to meet | Bacteria: European pharmacopoeia criteria [3]: meeting European pharmacopoeia criteria A | Solutions providing antimicrobial protection, Pharma Europe: EtOH concentration [3]: starting from 15% | Solutions providing antimicrobial protection, Pharma USP: EtOH concentration [3]: starting from 0% EtOH | Solutions providing antimicrobial protection, Pharma Europe: humectant concentration [3]: starting from 5% PG | Solutions providing antimicrobial protection, Pharma USP: humectant concentration [3]: starting from 30% PG | Ethanol concentration to meet European pharmacopoeia criteria A ([3]; with 10% of PG): 15%

CCCOC(=O)c1cc(O)c(O)c(O)c1 [Propyl gallate]
Moulds, Aspergillus Niger [1]: − | Gram+ bacterium, Staphylococcus aureus [2]: − | Gram− bacterium, Pseudomonas aeruginosa [4]: ++ | Inhibition of Pseudomonas aeruginosa, criteria met [4]: meeting European pharmacopoeia criteria A | Yeast, Candida albicans [5]: − | Gram− bacterium, Esoherichia coli [6]: −

O=C1O[C@H]([C@@H](O)CO)C([O-])=C1O.[Na+] [Sodium ascorbate]
Moulds, Aspergillus Niger [1]: − | Action on Staphylococcus aureus, criteria met [2]: meeting European pharmacopoeia criteria A | Gram+ bacterium, Staphylococcus aureus [2]: ++ | Gram− bacterium, Pseudomonas aeruginosa [4]: − | Yeast, Candida albicans [5]: − | Action on Escherichia coli, criteria met [6]: meeting the USP criteria | Gram− bacterium, Esoherichia coli [6]: +

CCO [ethanol]
Ethanol concentration in the aqueous mixture from which the bactericidal action meets European pharmacopoeia criteria A and the USP criteria ([3]; ethanol/water, bacteria): ≥ 15% | Ethanol concentration at which the fungicidal action meets the requirements for all the pharmacopoeias ([3]; ethanol/water, fungi): 25% | Ethanol concentration starting from which proliferation of microorganisms can be prevented (microorganisms): ≥ 25 % (v/v)

OCC(O)CO [glycerol]
USP criteria [3]: does not meet | Bacteria: European pharmacopoeia criteria [3]: meet only European pharmacopoeia criteria B for bacteria | Solutions providing antimicrobial protection, Pharma Europe: EtOH concentration [3]: starting from 15% | Solutions providing antimicrobial protection, Pharma USP: EtOH concentration [3]: starting from 5% EtOH | Solutions providing antimicrobial protection, Pharma Europe: humectant concentration [3]: starting from 5% | Solutions providing antimicrobial protection, Pharma USP: humectant concentration [3]: starting from 10% | Ethanol concentration to meet European pharmacopoeia criteria A ([3]; with 5% by mass of glycerol): 15% | Ethanol concentration to meet the USP criteria ([3]; with 10% by mass of glycerol): 5%

COC(=O)c1ccc(O)cc1 [methylparaben]
Concentration that makes it possible to inhibit Aspergillus niger (Aspergillus niger): 1000 ppm | Concentration that makes it possible to inhibit Candida albicans (Candida albicans): 1000 ppm

CCCOC(=O)c1ccc(O)cc1 [propylparaben]
Concentration that makes it possible to inhibit Aspergillus niger (Aspergillus niger): 250 ppm | Concentration that makes it possible to inhibit Candida albicans (Candida albicans): 250 ppm

Polyethylene Glycol 400 [PEG 400]
Solutions providing antimicrobial protection, Pharma Europe: EtOH concentration [3]: starting from 10% | Solutions providing antimicrobial protection, Pharma USP: EtOH concentration [3]: starting from 5% EtOH | Solutions providing antimicrobial protection, Pharma Europe: humectant concentration [3]: starting from 20% | Solutions providing antimicrobial protection, Pharma USP: humectant concentration [3]: starting from 20% PEG | Ethanol concentration to meet the USP criteria ([3]; with 20% by mass of PEG 400): 5% | Ethanol concentration to meet European pharmacopoeia criteria A ([3]; with 20% by mass of PEG 400): 10%

Tocopherol
Moulds, Aspergillus Niger [1]: − | Gram+ bacterium, Staphylococcus aureus [2]: − | Efficacy on the microorganisms as a whole / spectrum of efficacy [3]: do not have a significant efficacy | Gram− bacterium, Pseudomonas aeruginosa [4]: − | Yeast, Candida albicans [5]: − | Gram− bacterium, Esoherichia coli [6]: −
